# Data reported in patent US10246466B2, “Diaryl macrocycles as modulators of protein kinases” (TP THERAPEUTICS, INC., priority 2014, dated 2019).
# What was measured:
# ALK = ALK (Homo sapiens (Human), UniProt Q9UM73); assay: KINOMEscan kinase binding assay (DiscoveRx)
# Method: (§1) For most assays, kinase-tagged T7 phage strains were prepared in an E. coli host derived from the BL21 strain. E. coli were grown to log-phase and infected with T7 phage and incubated with shaking at 32° C. until lysis. The lysates were centrifuged and filtered to remove cell debris. The remaining kinases were produced in HEK-293 cells and subsequently tagged with DNA for qPCR detection. […] The liganded beads were blocked with excess biotin and washed with blocking buffer (SeaBlock (Pierce), 1% BSA, 0.05% Tween 20, 1 mM DTT) to remove unbound ligand and to reduce nonspecific binding. […] All reactions were performed in polystyrene 96-well plates in a final volume of 0.135 mL. […] The kinase concentration in the eluates was measured by qPCR.
# ROS1 = ROS1 (Homo sapiens (Human), UniProt P08922); assay: KINOMEscan kinase binding assay (DiscoveRx)
# Method: (§2) Kinase binding assays were performed at DiscoveRx using the general KINOMEscan Kd Protocol (Fabian, M. A. et al., “A small molecule-kinase interaction map for clinical kinase inhibitors,” Nat. Biotechnol. 2005, 23(3):329-36). For most assays, kinase-tagged T7 phage strains were prepared in an E. coli host derived from the BL21 strain. E. coli were grown to log-phase and infected with T7 phage and incubated with shaking at 32° C. until lysis. The lysates were centrifuged and filtered to remove cell debris. The remaining kinases were produced in HEK-293 cells and subsequently tagged with DNA for qPCR detection. Streptavidin-coated magnetic beads were treated with biotinylated small molecule ligands for 30 minutes at room temperature to generate affinity resins for kinase assays. The liganded beads were blocked with excess biotin and washed with blocking buffer (SeaBlock (Pierce), 1% BSA, 0.05% Tween 20, 1 mM DTT) to remove unbound ligand and to reduce nonspecific binding. […] All reactions were performed in polystyrene 96-well plates in a final volume of 0.135 mL. […] The beads were then re-suspended in elution buffer (1×PBS, 0.05% Tween 20, 0.5 μM non-biotinylated affinity ligand) and incubated at room temperature with shaking for 30 minutes. The kinase concentration in the eluates was measured by qPCR.
# TRKA = TRKA (Homo sapiens (Human), UniProt P04629); assay: KINOMEscan kinase binding assay (DiscoveRx)
# Method: as §2
# [1] = system: Colorectal cell line KM12 (harboring endogenous TPM3-TRKA fusion gene); assay: KM12 cell proliferation assay (CellTiter-Glo); type: cell-based; details: Homo sapiens, 72 hours incubation, read-out: KM 12 cell prolif. IC50
# Method: (§3) Colorectal cell lines KM 12 (harboring endogenous TPM3-TRKA fusion gene) cells were cultured in DMEM medium, supplemented with 10% fetal bovine serum and 100 U/mL of penicillin/streptomycin. 5000 cells were seeded in 384 well white plate for 24 hours before compounds treatment. Cell proliferation was measured using CellTiter-Glo luciferase-based ATP detection assay (Promega) following the manufactures's protocol after 72 hours incubation. IC50 determinations were performed using GraphPad Prism software (GraphPad, Inc., San Diego, Calif.).
# as §3, with “Alternatively: Colorectal” for “Colorectal”, “line KM12” for “lines KM 12”, “penicillin/streptomycin. […]” for “penicillin/streptomycin.”
# [2] = system: Essential thrombocythemia cell line SET-2 cells (harboring endogenous JAK2 point mutation); assay: SET-2 cell proliferation assay (CellTiter-Glo); type: cell-based; details: Homo sapiens, 72 hours incubation, read-out: SET2 cell proli. IC50
# [3] = system: T cell lymphoma Karpas-299 cell line (harboring endogenous NPM-ALK fusion gene); assay: Karpas-299 cell proliferation assay (CellTiter-Glo); type: cell-based; details: Homo sapiens, 72 hours incubation, read-out: Karpas 299 cell proli. IC50
# JAK2 = JAK2 (Homo sapiens (Human), UniProt O60674); assay: KINOMEscan kinase binding assay (DiscoveRx)
# Method: as §1
# JAK1 = JAK1 (Homo sapiens (Human), UniProt P23458); assay: KINOMEscan kinase binding assay (DiscoveRx)
# Method: as §2
# JAK3 = JAK3 (Homo sapiens (Human), UniProt P52333); assay: KINOMEscan kinase binding assay (DiscoveRx)
# Method: as §2
# [4] = system: Ba/F3-EML4-ALK wild type cell line; assay: EML4-ALK Ba/F3 cell proliferation assay (CellTiter-Glo); type: cell-based; details: 48 hours incubation
# Method: The EML4-ALK wild-type gene (variant 1) was synthesized at GenScript and cloned into pCDH-CMV-MCS-EF1-Puro plasmid (System Biosciences, Inc). Ba/F3-EML4-ALK wild type cell line was generated by infecting Ba/F3 cells with lentivirus containing EML4-ALK wide-type. Stable cell lines were selected by puromycin treatment, followed by IL-3 withdrawal. 5000 cells were seeded in 384 well white plate overnight before compound treatment. Cell proliferation was measured using CellTiter-Glo luciferase-based ATP detection assay (Promega) following the manufactures's protocol after 48 hours of various concentration of compound incubation. IC50 determinations were performed using GraphPad Prism software (GraphPad, Inc., San Diego, Calif.).
# JAK2, sequence (O60674 whole entry): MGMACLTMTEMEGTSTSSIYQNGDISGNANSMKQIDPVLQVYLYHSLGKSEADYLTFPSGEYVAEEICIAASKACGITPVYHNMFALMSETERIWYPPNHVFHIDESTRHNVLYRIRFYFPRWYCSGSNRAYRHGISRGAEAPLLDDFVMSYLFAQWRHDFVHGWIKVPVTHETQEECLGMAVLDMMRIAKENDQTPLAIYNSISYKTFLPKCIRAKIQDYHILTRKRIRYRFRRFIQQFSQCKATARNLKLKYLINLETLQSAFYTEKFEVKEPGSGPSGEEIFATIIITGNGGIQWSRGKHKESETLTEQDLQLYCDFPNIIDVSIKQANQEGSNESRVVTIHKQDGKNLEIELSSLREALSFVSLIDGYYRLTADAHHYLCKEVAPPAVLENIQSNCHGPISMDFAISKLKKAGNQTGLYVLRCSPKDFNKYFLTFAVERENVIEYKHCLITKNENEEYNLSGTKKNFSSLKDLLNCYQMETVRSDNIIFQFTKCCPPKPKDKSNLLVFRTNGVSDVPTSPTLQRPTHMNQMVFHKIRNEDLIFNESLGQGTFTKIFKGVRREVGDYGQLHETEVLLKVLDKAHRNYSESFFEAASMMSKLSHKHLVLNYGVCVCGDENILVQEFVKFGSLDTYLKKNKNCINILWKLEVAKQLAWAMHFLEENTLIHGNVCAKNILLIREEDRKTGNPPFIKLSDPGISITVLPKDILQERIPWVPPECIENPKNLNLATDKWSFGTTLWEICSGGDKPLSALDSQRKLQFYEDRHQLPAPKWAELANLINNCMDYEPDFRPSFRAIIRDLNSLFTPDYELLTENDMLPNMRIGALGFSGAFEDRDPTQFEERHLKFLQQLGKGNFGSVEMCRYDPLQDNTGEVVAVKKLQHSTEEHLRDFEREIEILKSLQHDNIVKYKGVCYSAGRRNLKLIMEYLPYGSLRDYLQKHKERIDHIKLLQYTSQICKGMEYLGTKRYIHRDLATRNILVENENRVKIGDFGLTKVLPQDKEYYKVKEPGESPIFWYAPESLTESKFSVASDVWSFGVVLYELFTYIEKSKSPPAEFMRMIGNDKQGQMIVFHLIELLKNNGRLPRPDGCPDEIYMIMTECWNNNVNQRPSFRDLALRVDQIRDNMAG
# JAK3, sequence (P52333 whole entry): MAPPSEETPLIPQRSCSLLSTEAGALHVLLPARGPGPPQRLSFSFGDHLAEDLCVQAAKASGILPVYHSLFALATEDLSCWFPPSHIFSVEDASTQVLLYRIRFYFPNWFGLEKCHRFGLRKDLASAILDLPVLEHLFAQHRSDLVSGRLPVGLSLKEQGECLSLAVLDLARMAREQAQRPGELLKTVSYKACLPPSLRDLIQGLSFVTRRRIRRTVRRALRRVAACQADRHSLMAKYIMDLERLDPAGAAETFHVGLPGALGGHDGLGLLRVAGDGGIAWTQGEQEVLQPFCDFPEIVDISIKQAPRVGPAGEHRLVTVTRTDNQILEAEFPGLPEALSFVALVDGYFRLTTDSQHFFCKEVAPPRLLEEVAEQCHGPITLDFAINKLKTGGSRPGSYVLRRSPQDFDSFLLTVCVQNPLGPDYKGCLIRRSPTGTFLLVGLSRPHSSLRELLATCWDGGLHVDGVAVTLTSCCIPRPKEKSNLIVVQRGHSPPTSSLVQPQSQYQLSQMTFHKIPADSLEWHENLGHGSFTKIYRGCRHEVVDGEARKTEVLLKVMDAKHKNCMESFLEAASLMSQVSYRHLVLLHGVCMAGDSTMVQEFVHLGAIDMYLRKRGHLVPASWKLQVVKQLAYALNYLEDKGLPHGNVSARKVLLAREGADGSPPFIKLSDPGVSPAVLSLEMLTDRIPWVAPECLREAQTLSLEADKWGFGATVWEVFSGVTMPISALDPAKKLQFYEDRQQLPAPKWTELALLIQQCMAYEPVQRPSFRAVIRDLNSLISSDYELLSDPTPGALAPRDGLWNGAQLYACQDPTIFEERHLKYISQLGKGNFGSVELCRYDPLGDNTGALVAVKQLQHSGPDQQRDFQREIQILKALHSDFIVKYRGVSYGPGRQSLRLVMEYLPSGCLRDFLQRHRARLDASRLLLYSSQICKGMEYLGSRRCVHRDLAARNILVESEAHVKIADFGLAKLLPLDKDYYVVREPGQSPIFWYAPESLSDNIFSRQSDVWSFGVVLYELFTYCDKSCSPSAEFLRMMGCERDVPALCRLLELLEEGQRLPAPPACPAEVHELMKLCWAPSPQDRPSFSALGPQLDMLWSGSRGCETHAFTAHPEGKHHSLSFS
# ROS1, sequence (P08922 28-2347): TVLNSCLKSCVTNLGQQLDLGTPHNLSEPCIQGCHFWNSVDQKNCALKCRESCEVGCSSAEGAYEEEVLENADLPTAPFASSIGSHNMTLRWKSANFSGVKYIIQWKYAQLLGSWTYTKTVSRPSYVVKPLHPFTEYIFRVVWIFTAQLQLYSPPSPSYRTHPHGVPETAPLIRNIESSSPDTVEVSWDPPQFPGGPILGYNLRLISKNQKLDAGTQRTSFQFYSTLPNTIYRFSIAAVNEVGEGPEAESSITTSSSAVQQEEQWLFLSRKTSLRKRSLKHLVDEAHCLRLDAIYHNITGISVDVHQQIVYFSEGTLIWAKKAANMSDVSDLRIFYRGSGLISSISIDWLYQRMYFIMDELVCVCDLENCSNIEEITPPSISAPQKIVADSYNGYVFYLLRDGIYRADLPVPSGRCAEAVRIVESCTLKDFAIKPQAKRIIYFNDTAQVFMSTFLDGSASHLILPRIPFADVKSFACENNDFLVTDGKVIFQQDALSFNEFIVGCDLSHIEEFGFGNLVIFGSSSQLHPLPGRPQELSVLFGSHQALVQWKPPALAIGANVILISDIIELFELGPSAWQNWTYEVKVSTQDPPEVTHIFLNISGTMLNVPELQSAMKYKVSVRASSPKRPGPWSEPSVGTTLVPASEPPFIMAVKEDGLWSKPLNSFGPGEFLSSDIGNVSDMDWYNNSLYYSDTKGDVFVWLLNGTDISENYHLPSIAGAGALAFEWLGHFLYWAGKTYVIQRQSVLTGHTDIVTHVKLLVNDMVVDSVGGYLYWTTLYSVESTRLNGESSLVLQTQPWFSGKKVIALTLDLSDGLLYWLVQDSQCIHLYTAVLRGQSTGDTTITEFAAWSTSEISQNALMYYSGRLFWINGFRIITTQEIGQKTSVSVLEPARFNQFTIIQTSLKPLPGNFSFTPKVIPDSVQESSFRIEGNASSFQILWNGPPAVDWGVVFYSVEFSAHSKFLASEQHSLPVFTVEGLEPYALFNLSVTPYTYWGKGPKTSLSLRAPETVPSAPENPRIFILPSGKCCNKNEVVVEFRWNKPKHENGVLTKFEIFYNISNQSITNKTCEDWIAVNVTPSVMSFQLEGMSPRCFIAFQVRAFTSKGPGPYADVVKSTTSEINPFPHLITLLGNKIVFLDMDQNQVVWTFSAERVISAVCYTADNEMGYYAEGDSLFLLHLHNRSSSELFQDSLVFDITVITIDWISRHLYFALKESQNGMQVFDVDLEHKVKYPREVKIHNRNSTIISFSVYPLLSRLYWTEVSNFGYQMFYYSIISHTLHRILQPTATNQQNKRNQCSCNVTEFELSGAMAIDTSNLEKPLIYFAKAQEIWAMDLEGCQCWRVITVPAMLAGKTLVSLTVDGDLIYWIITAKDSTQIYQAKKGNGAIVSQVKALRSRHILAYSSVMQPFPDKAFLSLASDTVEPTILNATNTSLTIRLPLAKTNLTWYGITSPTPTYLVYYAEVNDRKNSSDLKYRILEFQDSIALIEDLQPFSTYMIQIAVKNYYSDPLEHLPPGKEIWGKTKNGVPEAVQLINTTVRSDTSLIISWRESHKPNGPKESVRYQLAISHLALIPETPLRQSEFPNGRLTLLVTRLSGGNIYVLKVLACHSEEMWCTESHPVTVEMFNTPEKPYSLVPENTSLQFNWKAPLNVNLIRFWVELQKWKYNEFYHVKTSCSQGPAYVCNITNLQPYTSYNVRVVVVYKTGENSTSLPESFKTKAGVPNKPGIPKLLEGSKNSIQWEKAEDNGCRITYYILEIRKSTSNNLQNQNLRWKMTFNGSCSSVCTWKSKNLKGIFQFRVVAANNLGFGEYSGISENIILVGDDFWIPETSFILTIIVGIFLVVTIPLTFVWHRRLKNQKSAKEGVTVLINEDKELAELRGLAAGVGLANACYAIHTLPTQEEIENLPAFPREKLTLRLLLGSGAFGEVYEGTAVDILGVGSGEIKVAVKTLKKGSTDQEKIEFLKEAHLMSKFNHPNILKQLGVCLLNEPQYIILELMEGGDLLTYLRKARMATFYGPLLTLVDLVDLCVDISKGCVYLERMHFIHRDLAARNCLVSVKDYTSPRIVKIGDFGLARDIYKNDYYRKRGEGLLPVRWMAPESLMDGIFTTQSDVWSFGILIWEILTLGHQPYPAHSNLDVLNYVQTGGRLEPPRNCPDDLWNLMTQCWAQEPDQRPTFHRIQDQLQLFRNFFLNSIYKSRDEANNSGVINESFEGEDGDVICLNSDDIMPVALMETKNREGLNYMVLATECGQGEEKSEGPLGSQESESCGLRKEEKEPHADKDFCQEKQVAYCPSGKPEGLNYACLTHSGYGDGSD
SMILES,Kd (ALK) [nM],Kd (ROS1) [nM],Kd (TRKA) [nM],IC50 [3] [nM],Kd (JAK2) [nM],Kd (JAK1) [nM],Kd (JAK3) [nM],IC50 [1] [nM],IC50 [2] [nM],EML4-ALK Ba/F3 cell proli. TC50 [4] [nM]
"CC1Oc2ccn3ncc(c3n2)C(=O)NCCOc2ccc(F)c(Cl)c21 (centres unmarked) [Example 11-1, 12-chloro-11-fluoro-13-methyl-6,7-dihydro-13H-1,15-ethenopyrazolo[4,3-f][1,10,4,8] benzodioxadiazacyclotridecin-4(5H)-one]",> 30000,1900,1900,> 10000,–,–,–,> 10000,> 10000,–
"CN1Cc2c(ccc(F)c2Cl)OCCNC(=O)c2cnn3ccc1nc23 [Example 39, 12-chloro-11-fluoro-14-methyl-6,7,13,14-tetrahydro-1,15-ethenopyrazolo[4,3-f][1,4,8,10]benzoxatriazacyclotridecin-4(5H)-one]",180,4.7,0.23,3800,27,–,–,3.8,8800,–
"Cc1nn2ccc3nc2c1C(=O)NCCOc1ccc(F)cc1CN3C [Example 40, 11-fluoro-3,14-dimethyl-6,7,13,14-tetrahydro-1,15-ethenopyrazolo[4,3-f][1,4,8,10]benzoxatriazacyclotridecin-4(5H)-one]",600,410,–,> 10000,–,–,–,204,> 10000,–
"CC1Oc2ccc3ncc(n3n2)C(=O)NCCOc2ccc(F)cc21 (centres unmarked) [Example 41, 10-fluoro-8-methyl-15,16-dihydro-8H-3,6-ethenoimidazo[5,1-f][1,10,4,7,8]benzodioxatriazacyclotridecin-17(14H)-one]",200,–,6,3900,2.6,280,33,118,1500,–
"CN1Cc2cc(F)ccc2OCCNC(=O)c2cnc3ccc1nn23 [Example 42, 10-fluoro-7-methyl-7,8,15,16-tetrahydro-3,6-ethenoimidazo[5,1-f][1,4,7,8,10]benzoxatetraazacyclotridecin-17(14H)-one]",–,–,0.088,3400,–,–,–,4,2000,–
"CCN1Cc2cc(F)ccc2OCCNC(=O)c2cnn3ccc1nc23 [Example 43, 14-ethyl-11-fluoro-6,7,13,14-tetrahydro-1,15-ethenopyrazolo[4,3-f][1,4,8,10]benzoxatriazacyclotridecin-4(5H)-one]",–,–,0.086,2800,3.7,–,–,2.6,1700,–
"CC(C)N1Cc2cc(F)ccc2OCCNC(=O)c2cnn3ccc1nc23 [Example 45, 11-fluoro-14-(propan-2-yl)-6,7,13,14-tetrahydro-1,15-ethenopyrazolo[4,3-f][1,4,8,10]benzoxatriazacyclotridecin-4(5H)-one]",–,–,0.082,> 10000,7.8,–,–,0.35,8000,–
"C[C@@H]1CNC(=O)c2cnn3ccc(nc23)N[C@H](C)c2cc(F)ccc2O1 [Example 92, (7R,13R)-11-fluoro-7,13-dimethyl-6,7,13,14-tetrahydro-1,15-ethenopyrazolo[4,3-f][1,4,8,10]benzoxatriazacyclotridecin-4(5H)-one]",–,–,–,88.7,–,–,–,0.3,142,78.6
"C[C@H]1CNC(=O)c2cnn3ccc(nc23)N[C@H](C)c2cc(F)ccc2O1 [Example 93, (7S,13R)-11-fluoro-7,13-dimethyl-6,7,13,14-tetrahydro-1,15-ethenopyrazolo[4,3-f][1,4,8,10]benzoxatriazacyclotridecin-4(5H)-one]",–,–,–,–,–,–,–,0.5,242,21.1

# More lines, main results first:
Kd (ALK) [nM],Kd (ROS1) [nM],Kd (TRKA) [nM],IC50 [3] [nM],Kd (JAK2) [nM],Kd (JAK1) [nM],Kd (JAK3) [nM],SMILES,IC50 [1] [nM],IC50 [2] [nM],EML4-ALK Ba/F3 cell proli. TC50 [4] [nM]
–,–,0.14,3900,24,–,–,"CN1Cc2ccccc2OCCNC(=O)c2cnn3ccc1nc23 [Example 49, 14-methyl-6,7,13,14-tetrahydro-1,15-ethenopyrazolo[4,3-f][1,4,8,10]benzoxatriazacyclotridecin-4(5H)-one]",6.7,7000,–
–,–,0.2,4100,0.57,–,–,"O=C1NCCOc2ccc(F)cc2CNc2ccn3ncc1c3n2 [Example 50, 11-fluoro-6,7,13,14-tetrahydro-1,15-ethenopyrazolo[4,3-f][1,4,8,10]benzoxatriazacyclotridecin-4(5H)-one]",74,6000,–
–,–,0.065,832,0.15,65,4.3,"CC1Nc2ccn3ncc(c3n2)C(=O)NCCOc2ccc(F)cc21 (centres unmarked) [Example 51, 11-fluoro-13-methyl-6,7,13,14-tetrahydro-1,15-ethenopyrazolo[4,3-f][1,4,8,10]benzoxatriazacyclotridecin-4(5H)-one]",3.2,425,–
6.8,0.73,0.051,289,0.048,37,1.8,"C[C@H]1Nc2ccn3ncc(c3n2)C(=O)NCCOc2ccc(F)cc21 [Example 51-1, (13R)-11-fluoro-13-methyl-6,7,13,14-tetrahydro-1,15-ethenopyrazolo[4,3-f][1,4,8,10]benzoxatriazacyclotridecin-4(5H)-one]",1.3,234,248
270,62,6.5,7800,–,–,–,"CC1Nc2ccn3ncc(c3n2)C(=O)NCCOc2ccc(F)c(Cl)c21 (centres unmarked) [Example 52, 12-chloro-11-fluoro-13-methyl-6,7,13,14-tetrahydro-1,15-ethenopyrazolo[4,3-f][1,4,8,10]benzoxatriazacyclotridecin-4(5H)-one]",52,3600,–
–,–,0.015,3900,6.5,–,–,"CN1Cc2cc(F)ccc2OCCCNC(=O)c2cnn3ccc1nc23 [Example 75, 12-fluoro-15-methyl-5,6,7,8,14,15-hexahydro-4H-1,16-ethenopyrazolo[4,3-g][1,5,9,11]benzoxatriazacyclotetradecin-4-one]",0.6,4440,–
14,–,–,281,0.74,–,–,"O=C1NCCOc2ccc(F)cc2C(CO)Nc2ccn3ncc1c3n2 (centres unmarked) [Example 98, 11-fluoro-13-(hydroxymethyl)-6,7,13,14-tetrahydro-1,15-ethenopyrazolo[4,3-f][1,4,8,10]benzoxatriazacyclotridecin-4(5H)-one]",7.4,808,–
28,–,–,1960,1.9,–,–,"O=C1NCCCOc2ccc(F)cc2CCc2ccn3ncc1c3n2 [Example 103, 12-fluoro-5,6,7,8,14,15-hexahydro-4H-1,16-ethenopyrazolo[4,3-g][1,5,9]benzoxadiazacyclotetradecin-4-one]",15,> 10000,–
